We go through 1 compound from US20240285637A1, “PHOSPHODIESTERASE INHIBITORS FOR THE MITIGATION OF FRAGILE X SYNDROME SYMPTOMS” (THE ROYAL INSTITUTION FOR THE ADVANCEMENT OF …, priority 2021, published 2024).

The subject of experiment [1] is cerebellar stellate cells. In words: Cell-attached recordings of action currents (intrinsic plasticity) after HFS of parallel fibers. The format is cell-based, mouse. The note with it: Fmr1 KO stellate cells, pre-treatment with 100 μM sildenafil. The text has this:
(§1) Cerebellum slice preparation: Mice (P21-35) were anesthetized with isoflurane and immediately decapitated. A block of cerebellar vermis was rapidly dissected from the mouse head and submerged in an ice-cold cutting solution perfused with carbogen gas (95% O2, 5% CO2). Cutting solution contains (in mM): 235 sucrose, 2.5 KCl, 1.25 NaH2PO4, 28 NaHCO3, 0.5 CaCl2, 7 MgCl2, 28 D-glucose, 1 ascorbic acid, and 3 sodium pyruvate (pH 7.4; 305-315 mOsmol/L). The block of vermis was then fastened to a platform, transferred to the slicing chamber and again submerged in ice-cold cutting solution, bubbled with carbogen throughout the remainder of the procedure. Thin slices of cerebellar vermis (300 μm) were obtained with a vibrating tissue sectioner (Leica VT1200; Leica Instruments, Nussloch, Germany). The slices were transferred to oxygenated artificial cerebrospinal fluid (ACSF) and held at room temperature (21° C.-23° C.) for at least 1 h before recordings were performed. […]
(§2) For extracellular stimulations, thin walled borosilicate glass electrodes (OD 1.65 mm, ID 1.15 mm; King Precision Glass Inc, Claremont, CA, USA) were used with a tip resistance of <3 MΩ when filled with ACSF. […] To minimize variability between responses, the stimulating electrode was positioned 50-100 μm away from the recorded cell. […]

For experiment [2], the system named is Fmr1 KO mice. In words: Locomotor activity in activity boxes (open field). The note with it: sildenafil 7.5 mg/kg i.p. The format is in vivo, mouse. Here is the method:
Behavior experiments-locomotor activity: The locomotor activity was measured in an environment (activity boxes) novel to the animals, as described previously. Briefly, mice were handled for about 5 minutes once a day for one week before the testing. On the day of testing, animals were brought in their home cages to the anteroom (a room adjacent to the testing room separated by a door) and kept there for 30 minutes before drug or vehicle administration. Animals of both genotypes were randomly divided into two groups. One group received an i.p. injection of sildenafil (7.5 mg/kg; drug dissolved in sterilized PBS with 2% DMSO) and the other group an i.p. injection of the vehicle. One hour after the drug or vehicle administrations, the animals were placed in individual activity boxes (AccuScan Instruments, Inc., Columbus, OH, USA) (L×W×H=17.5 cm×10 cm×26 cm) in a dimly lit testing room where their locomotor activity was monitored for 90 min. The activity boxes were equipped with infrared sensors; beam breaks by the animals were used to assess locomotor activity. Data were collected using the Versamax™ Software (version 4.0, 2004; AccuScan Instruments, Inc.). The total horizontal activity for the whole 90 min session was used in the analysis.

Experiment [3] concerns blood vessels in the somatosensory cortex. In words: Acute slice vascular reactivity, somatosensory cortex. The format is cell-based, mouse. Also on record: effect on the NMDA response (vasodilation) / vasodilation (direct action on blood vessels): dose or concentration left out as unconfirmed. The note with it: Fmr1 KO cortex, pre-incubation with sildenafil, at least some blood vessels.

For experiment [4], the system named is Fmr1 KO mice. In words: Prepulse inhibition of the acoustic startle response. The format is in vivo, mouse. The note with it: single dose of sildenafil 7.5 mg/kg i.p. The text has this:
Behavior experiments-prepulse inhibition: PPI of the acoustic startle response (ASR) was studied in post-pubertal (PD 56-90) animals using an SR-LAB system (San Diego Instruments, San Diego, CA, USA) comprising two sound-attenuating chambers, each equipped with a cylindrical Plexiglas animal enclosure (length 16 cm, inner diameter 8.2 cm). A speaker positioned 24 cm directly above the enclosure provided the broadband tone pulses. A piezoelectric accelerometer affixed to the animal enclosure frame was used to detect and transduce motion resulting from the animals' startle response. Tone pulse parameters were controlled by a microcomputer using the software package (SR-LAB) and interface assembly that also digitized (0-4095), rectified, and recorded stabilimeter readings. All PPI studies were conducted between 09:00 and 17:00 h. Animals randomly received either saline or sildenafil (7.5 mg/kg i.p.) treatment. […] On the first two trials, the magnitude of the startle response to a 30 ms lasting 120 dB tone was measured. […] ASR was measured at each of the four prepulse intensities on five trials; animals were randomly presented with the startle tone alone during the other 10 trials. […]

Experiment [5] relates to blood vessels (capillaries) in the molecular layer of the cerebellum. In words: Acute slice vascular reactivity, cerebellar vermis slices (U46619 constriction, NMDA dilation). The note with it: Fmr1 KO cerebellum, pre-incubation with sildenafil. More on the design: effect on the NMDA response (vasodilation) / vasodilation (direct action on blood vessels): dose or concentration left out as unconfirmed. The format is cell-based, mouse.

Experiment [6] relates to cerebellar stellate cells. In words: Current-clamp recordings of PF-evoked synaptic events (GABAR plasticity). The format is cell-based, mouse. The note with it: Fmr1 KO stellate cells, 100 μM sildenafil.
Description: as §1, §2

In experiment [7] the test system is cerebellar stellate cells. Nature of the experiment: Voltage-clamp recordings of pharmacologically-isolated GABAR currents, HFS paired with depolarization. The note with it: Fmr1 KO stellate cells. The format is cell-based, mouse.
Description: as §1, §2

The subject of experiment [8] is cerebellar stellate cells. Nature of the experiment: Minimal stimulation protocol, evoked IPSCs before and after HFS (failure rate of GABAergic transmission). The format is cell-based, mouse. The note with it: Fmr1 KO stellate cells.

“Also recorded” adds a separate entry of the source.

For the compound `CCCc1nn(C)c2c(=O)[nH]c(-c3cc(S(=O)(=O)N4CCN(C)CC4)ccc3OCC)nc12` [sildenafil], the “long-term increase in baseline firing rates following HFS of PFs” value in experiment [1] is reported as “restored the long-term increase in baseline firing rates”. Moreover, the “enhanced locomotor activity / deficits in locomotion” value in the experiment on Fmr1 KO mice [2] is “normalized the enhanced locomotor activity; also recorded: rescued”. The “effect on the NMDA response (vasodilation)” value is on record as “rescue some of the deficits” in experiment [3] and “little or no effect” in experiment [5]. For the same compound, the “deficits in prepulse inhibition (PPI)” value with Fmr1 KO mice [4] was “fully correct deficits; also recorded: rescued”. In experiment [6], the “GABAR plasticity (NMDAR-mediated inhibitory synapse strengthening), current-clamp” value was “rescued the complete loss of GABAR plasticity”. Besides, in experiment [7] (100 μM sildenafil), the “GABAR plasticity (NMDAR-mediated inhibitory synapse strengthening), voltage-clamp” value was “rescued the complete loss of GABAR plasticity”. Moreover, the “baseline properties of the cells” value in experiment [7] (current-clamp and voltage-clamp, data not shown) is given as “did not, however, affect baseline properties”. Further, in experiment [8] (10−100 μM sildenafil in the patch electrode, baseline, n=5), the “failure rate (mean)” value is 90.9+/−3.57%. Further, in experiment [8] (10−100 μM sildenafil in the patch electrode, post-HFS, n=5), the “failure rate, failed events (mean)” value is recorded as 59.44+/−8.36%. Further, the “iLTP following HFS of parallel fibers” value in experiment [8] (sildenafil in the patch electrode) was “remarkable restoration of iLTP”.
